Earlier results as cited in EP1577823B1, “A method for identifying unknown proteins by a two-dimensional separation step and the use of markers” (CENTRE NATIONAL DE LA RECHERCHE SCIENTIFIQUE (CNRS), priority 2004, dated 2005).

Conditions: pKa value of the positively or negatively charged amino acid side chain

Compound	pKR
N=C(N)NCCC[C@H](N)C(=O)O [Arginine]	12,5
N[C@@H](CCC(=O)O)C(=O)O [Glutamic acid]	4,3
NCCCC[C@H](N)C(=O)O [Lysine]	10,8
N[C@@H](CS)C(=O)O [Cysteine]	8,3
C[C@@H](O)[C@H](N)C(=O)O [Threonine]	13

Next, values leading:

pKR	Compound
10,1	N[C@@H](Cc1ccc(O)cc1)C(=O)O [Tyrosine]
6	N[C@@H](Cc1c[nH]cn1)C(=O)O [Histidine]
13	N[C@@H](CO)C(=O)O [Serine]
